We go through 10 molecules from patent publication US8198295B2, “Benzonaphthyridines” (Nycomed GmbH, priority 2002, dated 2012).

Where a name gives a salt, the structure may show the parent alone. Read-outs that look alike come from different tables or passages of the source.

The target in test [1] is PDE4 (cAMP-specific), cytosol of human polymorphonuclear leukocytes (PMNL). Put plainly: Inhibition of PDE isoenzymes: PDE4. It is filed as biochemical. Particulars: cAMP as substrate, motapizone (1 μM) present. As to the method:
(§1) The PDE activity was determined according to Thompson et al. (Adv Cycl Nucl Res 10: 69-92, 1979) with some modifications (Bauer and Schwabe, Naunyn-Schmiedeberg's Arch Pharmacol 311: 193-198, 1980). The test samples contained 20 mM Tris (pH 7.4), 5 mM MgCl2, 0.5 μM CAMP or CGMP, [^3H]cAMP or [^3H]cGMP (about 30 000 cpm/sample), the PDE isoenzyme-specific additives described in greater detail below, the Indicated concentrations of inhibitor and an aliquot of the enzyme solution in a total sample volume of 200 μl. Dilution series of the compounds according to the invention were prepared in DMSO and further diluted in the samples [1:100 (v/v)], to give the desired end concentration of the inhibitors at a DMSO concentration of 1% (vN), which for its part has only a minute effect on PDE activity.
(§2) After preincubation at 37° C. for 5 minutes, the reaction was started by addition of the substrate (CAMP or cGMP). The samples were incubated at 37° C. for a further 15 min. The reaction was terminated by addition of 50 μl 0.2 N HCl. After cooling on ice for 10 minutes and addition of 25 μg 5′-nucleotidase (snake venom from Crotalus atrox), the mixture was again incubated at 37° C. for 10 min and the samples were then applied to QAE Sephadex A-25 columns (sample volume 1 ml). The columns were eluted with 2 ml of 30 mM ammonium formate (pH 6.0). The radioactivity of the eluate was measured and corrected by the corresponding blank values (measured in the presence of denatured protein); the blank values were less than 5% of the total radioactivity. In no case did the proportion of hydrolyzed nucleotide exceed 30% of the original substrate concentration.
PDE4 (cAMP-specific) was investigated in the cytosol of human polymorphonuclear leukocytes (PMNL) [isolated from leukocyte concentrates, see Schudt et al., Arch Pharmacol 1991: 344, 682-690] using CAMP as substrate. The PDE3 inhibitor motapizone (1 μM) was used to suppress the PDE3 activity emanating from contaminated platelets.
(§3) The IC50 values were determined from the concentration-inhibition curves by nonlinear regression.

For test [2], the target named is T1, PDE3 (cGMP-inhibited), homogenates of human platelets (Homo sapiens, UniProt Q14432).
T1 construct: from tissue; host or cells: homogenates of human platelets
T1 sequence (Q14432 whole entry): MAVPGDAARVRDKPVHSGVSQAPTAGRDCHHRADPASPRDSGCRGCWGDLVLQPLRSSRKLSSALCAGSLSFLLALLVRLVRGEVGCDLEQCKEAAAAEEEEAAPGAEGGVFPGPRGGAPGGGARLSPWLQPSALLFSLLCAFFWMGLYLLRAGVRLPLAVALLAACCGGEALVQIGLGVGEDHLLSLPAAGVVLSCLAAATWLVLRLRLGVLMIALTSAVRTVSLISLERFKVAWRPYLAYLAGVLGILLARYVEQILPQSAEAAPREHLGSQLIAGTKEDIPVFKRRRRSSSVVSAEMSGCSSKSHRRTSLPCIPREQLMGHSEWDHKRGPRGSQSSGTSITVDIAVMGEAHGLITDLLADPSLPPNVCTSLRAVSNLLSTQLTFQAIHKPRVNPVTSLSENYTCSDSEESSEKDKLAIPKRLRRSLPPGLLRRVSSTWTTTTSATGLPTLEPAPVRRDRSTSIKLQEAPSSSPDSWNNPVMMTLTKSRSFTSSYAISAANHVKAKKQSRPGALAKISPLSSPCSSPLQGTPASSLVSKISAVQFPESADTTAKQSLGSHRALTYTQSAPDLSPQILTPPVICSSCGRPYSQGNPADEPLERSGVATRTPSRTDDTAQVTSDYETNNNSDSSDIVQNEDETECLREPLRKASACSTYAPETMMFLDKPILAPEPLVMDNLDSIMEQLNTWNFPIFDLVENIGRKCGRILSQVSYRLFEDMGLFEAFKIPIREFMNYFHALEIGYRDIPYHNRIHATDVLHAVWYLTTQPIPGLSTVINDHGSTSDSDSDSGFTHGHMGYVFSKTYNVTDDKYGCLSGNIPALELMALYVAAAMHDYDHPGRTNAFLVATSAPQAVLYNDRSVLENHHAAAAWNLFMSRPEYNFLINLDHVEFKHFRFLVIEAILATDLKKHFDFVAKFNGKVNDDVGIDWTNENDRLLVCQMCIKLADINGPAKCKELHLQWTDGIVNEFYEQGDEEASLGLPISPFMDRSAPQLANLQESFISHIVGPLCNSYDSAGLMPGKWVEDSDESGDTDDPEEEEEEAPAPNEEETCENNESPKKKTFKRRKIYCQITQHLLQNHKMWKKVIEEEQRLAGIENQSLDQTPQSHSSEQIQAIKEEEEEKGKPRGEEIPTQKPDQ
The experiment in a line: Inhibition of PDE isoenzymes: PDE3. It is filed as biochemical. As to the method:
as §1, §2
PDE3 (cGMP-inhibited) was investigated in homogenates of human platelets (see Schudt et al., Biochem Pharmacol 1991: 42, 153-162) using CAMP or cGMP as substrate.
as §3

Where [3] appears, read: homogenates of human platelets, cAMP or cGMP as substrate, read-out: PDE3 [−log IC50, mol/l] (converted).

`CCOc1cc2c(cc1OC)C(c1ccc(C(=O)N(C(C)C)[C@@H](C)COC(=O)c3ccccc3)cc1)=N[C@@H]1CCN(C)C[C@H]21` [Compound 2]: the “PDE4 [−log IC50, mol/l]” value in test [1] is 9 −log IC50, mol/l. The IC50 in test [2] (setting [3]) was 25.1 nM.

Regarding `CCOc1cc2c(cc1OC)C(c1ccc(C(=O)N(C(C)C)[C@@H](C)CO)cc1)=N[C@@H]1CCN(C)C[C@H]21` [Compound 11], the “PDE4 [−log IC50, mol/l]” value in test [1] was 8.9 −log IC50, mol/l. For the same molecule, the IC50 in test [2] (setting [3]) is 79.4 nM.

In the case of `CCOc1cc2c(cc1OC)C(c1ccc(C(=O)N(C(C)C)[C@@H](C)COC(=O)Cc3ccccc3)cc1)=N[C@@H]1CCN(C)C[C@H]21` [Compound 1, Phenyl-acetic acid (S)-2-({1-[4-((4aR,10bS)-9-ethoxy-8-methoxy-2-methyl-1,2,3,4a,10b-hexahydro-benzo[c][1,6]naphthyridin-6-yl)-phenyl]-methanoyl}-isopropyl-amino)-propyl ester], the “PDE4 [−log IC50, mol/l]” value in test [1] is reported as 9.8 −log IC50, mol/l. The IC50 in test [2] is 50.1 nM.

On to `CCOc1cc2c(cc1OC)C(c1ccc(C(=O)N(C(C)C)[C@@H](C)COC(=O)c3ccc(OC)c(OC)c3)cc1)=N[C@@H]1CCN(C)C[C@H]21` [Compound 3, 3,4-Dimethoxy-benzoic acid(S)2-({1-[4-((4aR,10bS)-9-ethoxy-8-methoxy-2-methyl-1,2,3,4,4a,10b-hexahdro-benzo[c][1,6]naphthyridin-6-yl)-phenyl]-methanoyl}-isopropyl-amino)-propyl ester], for which the “PDE4 [−log IC50, mol/l]” value in test [1] is 9.4 −log IC50, mol/l. In addition, the IC50 in test [2] (setting [3]) was 31.6 nM.

For the molecule `CCOc1cc2c(cc1OC)C(c1ccc(C(=O)N(C(C)C)[C@@H](C)COC(C)=O)cc1)=N[C@@H]1CCN(C)C[C@H]21` [Compound 5, Acetic acid (S-2-({1-[4-((4aR,10bS)-9-ethoxy-8-methoxy-2-methyl-1,2,3,4,4a,10b-hexahydro-benzo[c][1,6]naphthyyrdin-6-yl)-phenyl]-methanoyl}-isopropyl-amino)-propyl esterdihydrochloride], the “PDE4 [−log IC50, mol/l]” value in test [1] was 9.2 −log IC50, mol/l. Further, in test [2] (setting [3]), the IC50 was 79.4 nM.

For the molecule `CCOc1cc2c(cc1OC)C(c1ccc(C(=O)N(C(C)C)C(C)CCOC(=O)c3ccccc3)cc1)=N[C@@H]1CCN(C)C[C@H]21` (stereo partly drawn) [Compound 6, Benzoic acid 3-({1-[4-((4aR,10bS)-9-ethoxy-8-methoxy-2-methyl-1,2,3,4,4a,10b-hexahydro-benzo[c][1,6]naphthyridin-6-yl)-phenyl]-methanoyl}-isopropyl-amino)-butyl ester], the “PDE4 [−log IC50, mol/l]” value in test [1] is 9.2 −log IC50, mol/l. In addition, the IC50 in test [2] (setting [3]) is 100 nM.

Take `CCOc1cc2c(cc1OC)C(c1ccc(C(=O)N(C(C)C)C(C)CCOC(=O)Cc3ccccc3)cc1)=N[C@@H]1CCN(C)C[C@H]21` (stereo partly drawn) [Compound 7, Phenyl-acetic acid 3-({1-[4((4aR,10bS)-9-ethoxy-8-methoxy-2-methyl-1,2,3,4,4a,10b-hexahydro-benzo[c][1,6]naphthyridin-6-yl)-phenyl]-methanoyl}-isopropyl-amino)-butyl ester]: in test [1], the “PDE4 [−log IC50, mol/l]” value is recorded as 9.6 −log IC50, mol/l. This molecule also had an IC50 in test [2] of 31.6 nM.

Turning to `CCOc1cc2c(cc1OC)C(c1ccc(C(=O)N(C(C)C)C(C)CCOC(=O)Cc3ccc(OC)c(OC)c3)cc1)=N[C@@H]1CCN(C)C[C@H]21` (stereo partly drawn) [Compound 8, (3.4-Dimethoxy-phenyl)-acetic acid 3-({1-[4-((4aR,10bS)-9-ethoxy-8-methoxy-2-methyl-1,2,3,4,4a.10b-hexahydro-benzo[c][1,6]naphthyridin-6-yl)-phenyl]-methanoyl}-isopropyl-amino)-butyl ester], the “PDE4 [−log IC50, mol/l]” value in test [1] is 9.6 −log IC50, mol/l. For the same molecule, the IC50 in test [2] (setting [3]) was 50.1 nM.

Consider `CCOc1cc2c(cc1OC)C(c1ccc(C(=O)N(C(C)C)[C@@H](C)COC(=O)c3cc(OC)cc(OC)c3)cc1)=N[C@@H]1CCN(C)C[C@H]21` [Compound 4], for which the “PDE4 [−log IC50, mol/l]” value in test [1] is 9.3 −log IC50, mol/l. In addition, in test [2] (setting [3]), the IC50 was 39.8 nM.

For the molecule `CCOc1cc2c(cc1OC)C(c1ccc(C(=O)N(C(C)C)[C@H](C)CO)cc1)=N[C@@H]1CCN(C)C[C@H]21` [Compound 12], the “PDE4 [−log IC50, mol/l]” value in test [1] was 8.8 −log IC50, mol/l. Besides, the IC50 in test [2] (setting [3]) is 79.4 nM.
